#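 Where inhibition never reached the appropriate level, the endpoint shown equals the highest concentration tested. Otherwise, values were interpolated linearly from a five-concentration, 48-hour dose response in 96-well plates. GI50 = concentration required for 50% inhibition of growth. At the TGI there is no net growth.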 *1 amine or outer side, *2 acyl side, *3 side chain or, on linkers, in order; H or OH if unused. Where a SMILES comes first, the peptide text is derived from it. CO = O=C([*:1])[*:2]
# Experiments:
# Experiment in all cases: growth of human tumour cells (NCI), 48 h
# A498 renal = test system: A498 renal
# ACHN renal = test system: ACHN renal
# CAKI-1 renal = test system: CAKI-1 renal
# EKVX NSCLC = test system: EKVX NSCLC
# HCT-15 colon = test system: HCT-15 colon
# HT29 colon = test system: HT29 colon
# MOLT-4 leukemia = test system: MOLT-4 leukemia
# SK-MEL-2 melanoma = test system: SK-MEL-2 melanoma
# UO-31 renal = test system: UO-31 renal
# NCI-H23 lung = test system: NCI-H23 lung
SMILES,GI50 (A498 renal),TGI (A498 renal),GI50 (ACHN renal),TGI (ACHN renal),GI50 (CAKI-1 renal),TGI (CAKI-1 renal),GI50 (EKVX NSCLC),TGI (EKVX NSCLC),GI50 (HCT-15 colon),TGI (HCT-15 colon),GI50 (HT29 colon),TGI (HT29 colon),GI50 (MOLT-4 leukemia),TGI (MOLT-4 leukemia),GI50 (SK-MEL-2 melanoma),TGI (SK-MEL-2 melanoma),GI50 (UO-31 renal),TGI (UO-31 renal),GI50 (NCI-H23 lung),TGI (NCI-H23 lung)
COc1ccc2c(c1)C(=O)c1c-2c(N2CCN(C(=O)CN(C)C)CC2)nc2ccccc12,15.4 µM,31.8 µM,16 µM,33.2 µM,47.9 µM,> 100 µM,17.7 µM,41.5 µM,14.4 µM,32.3 µM,2.13 µM,12.7 µM,5.23 µM,24.8 µM,18.4 µM,39 µM,10.4 µM,26 µM,,
CC(C)C(NC(=O)C(CCCN=C(N)N)NC(=O)NC(Cc1ccccc1)C(=O)O)C(=O)NC(C=O)CCCN=C(N)N (stereo not drawn) ({Phe-CO}-Arg-Val-Arg-aldehyde; configuration not given here),> 5 µM,> 5 µM,> 5 µM,> 5 µM,> 5 µM,> 5 µM,> 5 µM,> 5 µM,> 5 µM,> 5 µM,> 5 µM,> 5 µM,,,> 5 µM,> 5 µM,> 5 µM,> 5 µM,> 5 µM,> 5 µM
N#C/C(=C\c1ccc(Br)cc1)n1nnc2cc(F)c(F)cc21,1.74 µM,3.2 µM,1.9 µM,3.63 µM,1.37 µM,2.79 µM,,,1.34 µM,2.93 µM,1.85 µM,3.62 µM,2.7 µM,8.65 µM,1.76 µM,3.4 µM,1.46 µM,2.78 µM,1.76 µM,3.44 µM
CCC12CC[C@H](C#N)N3CCc4c(n(c5ccccc45)C(=O)C1)C32 (stereo partly drawn),,35.1 µM,,,,34.3 µM,,64.1 µM,,20.3 µM,,31.3 µM,,52 µM,,31.9 µM,,10.2 µM,,41.8 µM
COC1=CC(C)C2C[C@H]3O[C@H](O)C[C@H]4C(C)C(=O)C(O)C([C@@]2(C)C1=O)[C@@]34C (stereo partly drawn),,> 100 µM,,> 100 µM,,> 100 µM,,> 100 µM,,> 100 µM,,> 100 µM,,> 100 µM,,,,> 100 µM,,> 100 µM
Cc1cc(S(=O)(=O)/N=C(\N)n2nc(C)c(C)c2C)c(SCc2ccccc2)cc1Cl,> 100 µM,> 100 µM,> 100 µM,> 100 µM,,,5.38 µM,> 100 µM,7.1 µM,> 100 µM,> 100 µM,> 100 µM,3.52 µM,> 100 µM,> 100 µM,> 100 µM,4.57 µM,> 100 µM,7.04 µM,> 100 µM
C[C@@H](Oc1cc(-c2cnn(C3CC4(CCNCC4)C3)c2)cnc1N)c1c(F)ccc(Cl)c1Cl,0.488 µM,2.35 µM,2 µM,7.54 µM,2.41 µM,7.2 µM,,,1.38 µM,3.5 µM,0.446 µM,2.17 µM,1.29 µM,5.82 µM,1.93 µM,3.74 µM,1.89 µM,4.28 µM,1.09 µM,11.4 µM

# Source: PubChem BioAssay (NCI)
